Laboratory results taken from patent publication US20250353891A1 (MEDIMMUNE LIMITED, priority 2022, published 2025).
Starred links: 1 amine or outer side, 2 acyl side, 3 side chain; linkers in the order of their positions; H or OH if unused. Non-standard residues stand in square brackets, D forms with d. Residues, ends and D or L forms follow the SMILES beside them. Groups on a side chain read outwards from the residue. *: point of attachment. C20 diacid = O=C(O)CCCCCCCCCCCCCCCCCCC(=O)*; C18 diacid = O=C(O)CCCCCCCCCCCCCCCCC(=O)*; γGlu = O=C(O)[C@H](CCC(=O)[*:2])N[*:1]; αMeF = C[C@](N)(Cc1ccccc1)C(=O)O; AEEA = NCCOCCOCC(=O)O; Aib = CC(C)(N)C(=O)O

Legend:
[1] = biological target: human glucagon receptor (hGCGR) (Homo sapiens, UniProt P47871); experiment: cAMP production (HTRF) in CHO cells expressing hGCGR; assay type: cell-based; parameters: expressed in transfected cells; conditions: Table 7, peptides modified at position 20; cAMP in CHO hGCGR cells; geometric mean; read-out: hGluc-R EC50
How it was run: (§1)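 Potency values represent EC50 from 4-parameter logistic curves of HTRF % Delta F signal. Receptor-expressing CHO cells (hGCGR 2×10^5 cells/mL, hGLP-1R 1×10^5 cells/mL) were exposed for 30 min at room temperature before two-step cAMP detection.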

[2] = biological target: human GLP-1 receptor (hGLP-1R) (Homo sapiens, UniProt P43220); experiment: cAMP production (HTRF) in CHO cells expressing hGLP-1R; assay type: cell-based; parameters: expressed in transfected cells; conditions: for EC50: Table 7, peptides modified at position 20, cAMP in CHO hGLP-1R cells, geometric mean, read-out: hGLP-1R EC50; for % Relative Potency Ratio: Table 7, % GLP-1R activity relative to GLP-1 / % GlucR activity relative to glucagon
How it was run: as §1

human GLP-1 receptor (hGLP-1R), sequence (P43220 24-463): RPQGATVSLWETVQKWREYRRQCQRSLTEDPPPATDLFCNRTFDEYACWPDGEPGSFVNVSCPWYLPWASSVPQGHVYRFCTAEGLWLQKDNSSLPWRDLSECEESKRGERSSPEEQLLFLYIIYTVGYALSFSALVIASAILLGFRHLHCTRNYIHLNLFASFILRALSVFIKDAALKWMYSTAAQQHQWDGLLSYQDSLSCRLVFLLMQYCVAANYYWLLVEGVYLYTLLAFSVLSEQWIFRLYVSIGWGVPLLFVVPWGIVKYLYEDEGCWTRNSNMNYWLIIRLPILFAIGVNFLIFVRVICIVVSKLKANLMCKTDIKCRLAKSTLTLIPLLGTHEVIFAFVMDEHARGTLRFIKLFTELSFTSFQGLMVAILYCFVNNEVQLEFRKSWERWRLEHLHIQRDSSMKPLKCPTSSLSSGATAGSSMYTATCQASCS
human glucagon receptor (hGCGR), sequence (P47871 26-477): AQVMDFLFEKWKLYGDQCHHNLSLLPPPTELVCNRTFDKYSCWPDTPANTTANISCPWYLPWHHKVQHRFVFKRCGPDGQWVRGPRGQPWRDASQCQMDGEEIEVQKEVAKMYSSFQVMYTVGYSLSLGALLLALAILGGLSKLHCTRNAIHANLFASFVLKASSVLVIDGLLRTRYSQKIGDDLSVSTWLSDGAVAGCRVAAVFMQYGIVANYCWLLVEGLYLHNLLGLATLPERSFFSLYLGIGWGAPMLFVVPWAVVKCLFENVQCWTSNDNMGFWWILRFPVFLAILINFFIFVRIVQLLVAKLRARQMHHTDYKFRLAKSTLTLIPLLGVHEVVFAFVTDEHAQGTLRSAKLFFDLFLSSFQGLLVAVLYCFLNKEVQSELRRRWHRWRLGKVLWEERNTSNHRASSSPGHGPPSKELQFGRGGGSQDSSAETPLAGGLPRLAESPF

Question: What does the source list for `CC[C@H](C)[C@H](NC(=O)[C@H](CO)NC(=O)[C@H](CCC(N)=O)NC(=O)[C@@H](NC(=O)[C@H](Cc1ccccc1)NC(=O)[C@H](CC(=O)O)NC(=O)[C@H](CCCCNC(=O)COCCOCCNC(=O)COCCOCCNC(=O)CC[C@H](NC(=O)CCCCCCCCCCCCCCCCC(=O)O)C(=O)O)NC(=O)[C@H](C)NC(=O)[C@H](C)NC(=O)[C@H](CCC(N)=O)NC(=O)[C@H](CO)NC(=O)[C@H](CC(=O)O)NC(=O)[C@H](CC(C)C)NC(=O)[C@](C)(Cc1ccccc1)NC(=O)[C@H](CCCCN)NC(=O)[C@H](CO)NC(=O)[C@@H](NC(=O)[C@H](CC(=O)O)NC(=O)[C@H](CO)NC(=O)[C@@H](NC(=O)[C@](C)(Cc1ccccc1)NC(=O)[C@H](CO)NC(=O)CNC(=O)[C@H](Cc1c[nH]cn1)NC(=O)C(C)(C)NC(=O)[C@@H](N)Cc1c[nH]cn1)[C@@H](C)O)C(C)C)C(C)C)C(=O)N[C@@H](C)C(=O)N[C@@H](CC(N)=O)C(=O)N[C@H](C(N)=O)[C@@H](C)O` [Peptide 222] (H-H[Aib]HGS[αMeF]TSDVSK[αMeF]LDSQAAK([AEEA-AEEA-γGlu-C18 diacid])DFVQSIANT-NH2)?
Answer: EC50 [1]: 0.244 nM; EC50 [2]: 0.151 nM; % Relative Potency Ratio [2]: 3.2

Question: `CC[C@H](C)[C@H](NC(=O)C(C)(C)NC(=O)[C@H](CCC(N)=O)NC(=O)[C@@H](NC(=O)[C@](C)(Cc1ccccc1)NC(=O)[C@H](CC(=O)O)NC(=O)[C@H](CCCCNC(=O)COCCOCCNC(=O)COCCOCCNC(=O)CC[C@H](NC(=O)CCCCCCCCCCCCCCCCC(=O)O)C(=O)O)NC(=O)[C@H](C)NC(=O)[C@H](C)NC(=O)[C@H](CCCNC(=N)N)NC(=O)[C@H](CO)NC(=O)[C@H](CC(=O)O)NC(=O)[C@H](CC(C)C)NC(=O)[C@](C)(Cc1ccccc1)NC(=O)[C@H](CCCCN)NC(=O)[C@H](CO)NC(=O)[C@@H](NC(=O)[C@H](CC(=O)O)NC(=O)[C@H](CO)NC(=O)[C@@H](NC(=O)[C@](C)(Cc1ccccc1)NC(=O)[C@H](CO)NC(=O)CNC(=O)[C@H](Cc1c[nH]cn1)NC(=O)C(C)(C)NC(=O)[C@@H](N)Cc1c[nH]cn1)[C@@H](C)O)C(C)C)C(C)C)C(=O)N[C@@H](C)C(=O)N[C@@H](CC(N)=O)C(=O)N[C@H](C(=O)NCC(=O)NCC(N)=O)[C@@H](C)O` [Peptide 225] (H-H[Aib]HGS[αMeF]TSDVSK[αMeF]LDSRAAK([AEEA-AEEA-γGlu-C18 diacid])D[αMeF]VQ[Aib]IANTGG-NH2) was tested. Which EC50 [1] did it give?
Answer: 0.145 nM

Question: And the EC50 [2]?
Answer: 0.0349 nM

Question: And the “% Relative Potency Ratio” value [2]?
Answer: 8.2

Question: With `CC[C@H](C)[C@H](NC(=O)C(C)(C)NC(=O)[C@H](CCC(=O)O)NC(=O)[C@@H](NC(=O)[C@](C)(Cc1ccccc1)NC(=O)[C@H](CC(=O)O)NC(=O)[C@H](CCCCNC(=O)COCCOCCNC(=O)COCCOCCNC(=O)CC[C@H](NC(=O)CCCCCCCCCCCCCCCCC(=O)O)C(=O)O)NC(=O)[C@H](C)NC(=O)[C@H](C)NC(=O)[C@H](CCCNC(=N)N)NC(=O)[C@H](CO)NC(=O)[C@H](CC(=O)O)NC(=O)[C@H](CC(C)C)NC(=O)[C@](C)(Cc1ccccc1)NC(=O)[C@H](CCCCN)NC(=O)[C@H](CO)NC(=O)[C@@H](NC(=O)[C@H](CC(=O)O)NC(=O)[C@H](CO)NC(=O)[C@@H](NC(=O)[C@](C)(Cc1ccccc1)NC(=O)[C@H](CO)NC(=O)CNC(=O)[C@H](Cc1c[nH]cn1)NC(=O)C(C)(C)NC(=O)[C@@H](N)Cc1c[nH]cn1)[C@@H](C)O)C(C)C)C(C)C)C(=O)N[C@@H](C)C(=O)N[C@@H](CC(N)=O)C(=O)N[C@H](C(N)=O)[C@@H](C)O` [Peptide 226] (H-H[Aib]HGS[αMeF]TSDVSK[αMeF]LDSRAAK([AEEA-AEEA-γGlu-C18 diacid])D[αMeF]VE[Aib]IANT-NH2) as the molecule, how does the EC50 [1] read?
Answer: 0.0274 nM

Question: And the EC50 [2]?
Answer: 0.0827 nM

Question: What about the “% Relative Potency Ratio” value [2] of the same molecule?
Answer: 0.7

Question: Which results are given for `CC[C@H](C)[C@H](NC(=O)C(C)(C)NC(=O)[C@H](C)NC(=O)[C@@H](NC(=O)[C@](C)(Cc1ccccc1)NC(=O)[C@H](CC(=O)O)NC(=O)[C@H](CCCCNC(=O)COCCOCCNC(=O)COCCOCCNC(=O)CC[C@H](NC(=O)CCCCCCCCCCCCCCCCC(=O)O)C(=O)O)NC(=O)[C@H](C)NC(=O)[C@H](C)NC(=O)[C@H](CCCNC(=N)N)NC(=O)[C@H](CO)NC(=O)[C@H](CC(=O)O)NC(=O)[C@H](CC(C)C)NC(=O)[C@](C)(Cc1ccccc1)NC(=O)[C@H](CCCCN)NC(=O)[C@H](CO)NC(=O)[C@@H](NC(=O)[C@H](CC(=O)O)NC(=O)[C@H](CO)NC(=O)[C@@H](NC(=O)[C@](C)(Cc1ccccc1)NC(=O)[C@H](CO)NC(=O)CNC(=O)[C@H](Cc1c[nH]cn1)NC(=O)C(C)(C)NC(=O)[C@@H](N)Cc1c[nH]cn1)[C@@H](C)O)C(C)C)[C@@H](C)CC)C(=O)N[C@@H](C)C(=O)N[C@@H](CC(N)=O)C(=O)N[C@H](C(N)=O)[C@@H](C)O` [Peptide 227] (H-H[Aib]HGS[αMeF]TSDVSK[αMeF]LDSRAAK([AEEA-AEEA-γGlu-C18 diacid])D[αMeF]IA[Aib]IANT-NH2)?
Answer: EC50 [1]: 0.0272 nM; EC50 [2]: 0.0705 nM; % Relative Potency Ratio [2]: 0.8

Question: How did the EC50 [1] turn out when `CC[C@H](C)[C@H](NC(=O)[C@H](Cc1c[nH]c2ccccc12)NC(=O)[C@H](CCC(N)=O)NC(=O)[C@@H](NC(=O)[C@](C)(Cc1ccccc1)NC(=O)[C@H](CC(=O)O)NC(=O)[C@H](CCCCNC(=O)COCCOCCNC(=O)COCCOCCNC(=O)CC[C@H](NC(=O)CC[C@H](NC(=O)CCCCCCCCCCCCCCCCCCC(=O)O)C(=O)O)C(=O)O)NC(=O)[C@H](C)NC(=O)[C@H](C)NC(=O)[C@H](CCCNC(=N)N)NC(=O)[C@H](CO)NC(=O)[C@H](CC(=O)O)NC(=O)[C@H](CC(C)C)NC(=O)[C@](C)(Cc1ccccc1)NC(=O)[C@H](CCCCN)NC(=O)[C@H](CO)NC(=O)[C@@H](NC(=O)[C@H](CC(=O)O)NC(=O)[C@H](CO)NC(=O)[C@@H](NC(=O)[C@](C)(Cc1ccccc1)NC(=O)[C@H](CO)NC(=O)CNC(=O)[C@H](Cc1c[nH]cn1)NC(=O)C(C)(C)NC(=O)[C@@H](N)Cc1c[nH]cn1)[C@@H](C)O)C(C)C)C(C)C)C(=O)N[C@@H](C)C(=O)N[C@@H](CC(N)=O)C(=O)N[C@H](C(N)=O)[C@@H](C)O` [Peptide 228] (H-H[Aib]HGS[αMeF]TSDVSK[αMeF]LDSRAAK([AEEA-AEEA-γGlu-γGlu-C20 diacid])D[αMeF]VQWIANT-NH2; N-terminus assumed) was run?
Answer: 0.177 nM

Question: What about the EC50 [2] of the same molecule?
Answer: 0.2 nM

Question: And the “% Relative Potency Ratio” value [2]?
Answer: 1.7

Question: For `CC[C@H](C)[C@H](NC(=O)C(C)(C)NC(=O)[C@H](CCC(N)=O)NC(=O)[C@@H](NC(=O)[C@](C)(Cc1ccccc1)NC(=O)[C@H](CC(=O)O)NC(=O)[C@H](CCCCNC(=O)COCCOCCNC(=O)COCCOCCNC(=O)CC[C@H](NC(=O)CC[C@H](NC(=O)CCCCCCCCCCCCCCCCC(=O)O)C(=O)O)C(=O)O)NC(=O)[C@H](C)NC(=O)[C@H](C)NC(=O)[C@H](CCCNC(=N)N)NC(=O)[C@H](CO)NC(=O)[C@H](CC(=O)O)NC(=O)[C@H](CC(C)C)NC(=O)[C@](C)(Cc1ccccc1)NC(=O)[C@H](CCCCN)NC(=O)[C@H](CO)NC(=O)[C@@H](NC(=O)[C@H](CC(=O)O)NC(=O)[C@H](CO)NC(=O)[C@@H](NC(=O)[C@](C)(Cc1ccccc1)NC(=O)[C@H](CO)NC(=O)CNC(=O)[C@H](Cc1c[nH]cn1)NC(=O)C(C)(C)NC(=O)[C@@H](N)Cc1c[nH]cn1)[C@@H](C)O)C(C)C)C(C)C)C(=O)N[C@@H](C)C(=O)N[C@@H](CC(N)=O)C(=O)N[C@H](C(N)=O)[C@@H](C)O` [Peptide 231] (H-H[Aib]HGS[αMeF]TSDVSK[αMeF]LDSRAAK([AEEA-AEEA-γGlu-γGlu-C18 diacid])D[αMeF]VQ[Aib]IANT-NH2), which EC50 [1] is on record?
Answer: 0.0585 nM

Question: And the EC50 [2]?
Answer: 0.0499 nM

Question: What about the “% Relative Potency Ratio” value [2] of the same molecule?
Answer: 2.3

Question: What does the source list for `CC[C@H](C)[C@H](NC(=O)C(C)(C)NC(=O)[C@H](CCC(N)=O)NC(=O)[C@@H](NC(=O)[C@](C)(Cc1ccccc1)NC(=O)[C@H](CC(=O)O)NC(=O)[C@H](CCCCNC(=O)COCCOCCNC(=O)COCCOCCNC(=O)CC[C@H](NC(=O)CC[C@H](NC(=O)CCCCCCCCCCCCCCCCCCC(=O)O)C(=O)O)C(=O)O)NC(=O)[C@H](C)NC(=O)[C@H](C)NC(=O)[C@H](CCCNC(=N)N)NC(=O)[C@H](CO)NC(=O)[C@H](CC(=O)O)NC(=O)[C@H](CC(C)C)NC(=O)[C@](C)(Cc1ccccc1)NC(=O)[C@H](CCCCN)NC(=O)[C@H](CO)NC(=O)[C@@H](NC(=O)[C@H](CC(=O)O)NC(=O)[C@H](CO)NC(=O)[C@@H](NC(=O)[C@](C)(Cc1ccccc1)NC(=O)[C@H](CO)NC(=O)CNC(=O)[C@H](Cc1c[nH]cn1)NC(=O)C(C)(C)NC(=O)[C@@H](N)Cc1c[nH]cn1)[C@@H](C)O)C(C)C)C(C)C)C(=O)N[C@@H](C)C(=O)N[C@@H](CC(N)=O)C(=O)N[C@H](C(=O)NCC(=O)NCC(N)=O)[C@@H](C)O` [Peptide 232] (H-H[Aib]HGS[αMeF]TSDVSK[αMeF]LDSRAAK([AEEA-AEEA-γGlu-γGlu-C20 diacid])D[αMeF]VQ[Aib]IANTGG-NH2; N-terminus assumed)?
Answer: EC50 [1]: 1.02 nM; EC50 [2]: 0.11 nM; % Relative Potency Ratio [2]: 18.4
